Assay results from the supplement of paper PMC10307832.

Assays:
Assay in all cases: relative viability (nuclei count vs DMSO), 5 days (fraction); higher = more cells survive
201T = system: 201T
Procedure, shortened: (§1)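 Lung cancer cell lines in 1536-well plates got either a single drug or a fixed anchor-drug dose together with five library-drug doses (not always all listed) in √10 steps, by pin tool, on the day after seeding. Nuclei were counted after 5 days, and relative viability is the treated-to-vehicle ratio of nuclei counts. Values are medians of duplicate plates.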

BEN = system: BEN
Procedure, shortened: as §1

EMC-BAC-2 = system: EMC-BAC-2
Procedure, shortened: as §1

HARA = system: HARA
Procedure, shortened: as §1

HCC-44 = system: HCC-44
Procedure, shortened: as §1

LCLC-103H = system: LCLC-103H
Procedure, shortened: as §1

LOU-NH91 = system: LOU-NH91
Procedure, shortened: as §1

NCI-H1993 = system: NCI-H1993
Procedure, shortened: as §1

NCI-H2023 = system: NCI-H2023
Procedure, shortened: as §1

NCI-H2087 = system: NCI-H2087
Procedure, shortened: as §1

NCI-H2126 = system: NCI-H2126
Procedure, shortened: as §1

NCI-H2347 = system: NCI-H2347
Procedure, shortened: as §1

NCI-H23 = system: NCI-H23
Procedure, shortened: as §1

NCI-H3122 = system: NCI-H3122
Procedure, shortened: as §1

NCI-H441 = system: NCI-H441
Procedure, shortened: as §1

NCI-H596 = system: NCI-H596
Procedure, shortened: as §1

NCI-H647 = system: NCI-H647
Procedure, shortened: as §1

NCI-H650 = system: NCI-H650
Procedure, shortened: as §1

NCI-H727 = system: NCI-H727
Procedure, shortened: as §1

NCI-H838 = system: NCI-H838
Procedure, shortened: as §1

Nc1ccn([C@@H]2O[C@H](CO)[C@@H](O)[C@@H]2O)c(=O)n1 [Cytarabine] + CC(C)C[C@H](NC(=O)[C@H](Cc1ccccc1)NC(=O)c1cnccn1)B(O)O [Bortezomib] (partner 0.002 µM)
relative viability (201T; first compound 0.005 µM): 1.07
relative viability (201T; first compound 0.01581 µM): 1.11
relative viability (201T; first compound 0.05 µM): 0.866
relative viability (201T; first compound 0.1581 µM): 1.01
relative viability (201T; first compound 0.5 µM): 1
relative viability (BEN; first compound 0.005 µM): 0.667
relative viability (BEN; first compound 0.01581 µM): 0.742
relative viability (BEN; first compound 0.05 µM): 0.413
relative viability (BEN; first compound 0.1581 µM): 0.282
relative viability (BEN; first compound 0.5 µM): 0.233
relative viability (EMC-BAC-2; first compound 0.005 µM): 1.03
relative viability (EMC-BAC-2; first compound 0.01581 µM): 1.09
relative viability (EMC-BAC-2; first compound 0.05 µM): 0.807
relative viability (EMC-BAC-2; first compound 0.1581 µM): 0.254
relative viability (EMC-BAC-2; first compound 0.5 µM): 0.229
relative viability (HARA; first compound 0.005 µM): 0.725
relative viability (HARA; first compound 0.01581 µM): 0.642
relative viability (HARA; first compound 0.05 µM): 0.652
relative viability (HARA; first compound 0.1581 µM): 0.179
relative viability (HARA; first compound 0.5 µM): 0.139
relative viability (HCC-44; first compound 0.005 µM): 0.828
relative viability (HCC-44; first compound 0.01581 µM): 0.895
relative viability (HCC-44; first compound 0.05 µM): 0.793
relative viability (HCC-44; first compound 0.1581 µM): 0.425
relative viability (HCC-44; first compound 0.5 µM): 0.405
relative viability (LCLC-103H; first compound 0.005 µM): 0.977
relative viability (LCLC-103H; first compound 0.01581 µM): 1.17
relative viability (LCLC-103H; first compound 0.05 µM): 0.958
relative viability (LCLC-103H; first compound 0.1581 µM): 1.04
relative viability (LCLC-103H; first compound 0.5 µM): 0.966
relative viability (LOU-NH91; first compound 0.005 µM): 0.406
relative viability (LOU-NH91; first compound 0.01581 µM): 0.47
relative viability (LOU-NH91; first compound 0.05 µM): 0.388
relative viability (LOU-NH91; first compound 0.1581 µM): 0.338
relative viability (LOU-NH91; first compound 0.5 µM): 0.357
relative viability (NCI-H1993; first compound 0.005 µM): 1.1
relative viability (NCI-H1993; first compound 0.01581 µM): 0.964
relative viability (NCI-H1993; first compound 0.05 µM): 1
relative viability (NCI-H1993; first compound 0.1581 µM): 0.768
relative viability (NCI-H1993; first compound 0.5 µM): 0.62
relative viability (NCI-H2023; first compound 0.005 µM): 0.469
relative viability (NCI-H2023; first compound 0.01581 µM): 0.198
relative viability (NCI-H2023; first compound 0.05 µM): 0.17
relative viability (NCI-H2023; first compound 0.1581 µM): 0.0751
relative viability (NCI-H2023; first compound 0.5 µM): 0.0603
relative viability (NCI-H2087; first compound 0.005 µM): 0.631
relative viability (NCI-H2087; first compound 0.01581 µM): 1.01
relative viability (NCI-H2087; first compound 0.05 µM): 0.84
relative viability (NCI-H2087; first compound 0.1581 µM): 0.573
relative viability (NCI-H2087; first compound 0.5 µM): 0.338
relative viability (NCI-H2126; first compound 0.005 µM): 1.08
relative viability (NCI-H2126; first compound 0.01581 µM): 1.07
relative viability (NCI-H2126; first compound 0.05 µM): 1.09
relative viability (NCI-H2126; first compound 0.1581 µM): 0.703
relative viability (NCI-H2126; first compound 0.5 µM): 0.699
relative viability (NCI-H2347; first compound 0.005 µM): 1.22
relative viability (NCI-H2347; first compound 0.01581 µM): 0.951
relative viability (NCI-H2347; first compound 0.05 µM): 0.546
relative viability (NCI-H2347; first compound 0.1581 µM): 0.61
relative viability (NCI-H2347; first compound 0.5 µM): 0.667
relative viability (NCI-H23; first compound 0.005 µM): 0.743
relative viability (NCI-H23; first compound 0.01581 µM): 0.656
relative viability (NCI-H23; first compound 0.05 µM): 0.559
relative viability (NCI-H23; first compound 0.1581 µM): 0.24
relative viability (NCI-H23; first compound 0.5 µM): 0.214
relative viability (NCI-H3122; first compound 0.005 µM): 0.932
relative viability (NCI-H3122; first compound 0.01581 µM): 0.96
relative viability (NCI-H3122; first compound 0.05 µM): 0.856
relative viability (NCI-H3122; first compound 0.1581 µM): 0.676
relative viability (NCI-H3122; first compound 0.5 µM): 0.614
relative viability (NCI-H441; first compound 0.005 µM): 0.612
relative viability (NCI-H441; first compound 0.01581 µM): 0.376
relative viability (NCI-H441; first compound 0.05 µM): 0.483
relative viability (NCI-H441; first compound 0.1581 µM): 0.283
relative viability (NCI-H441; first compound 0.5 µM): 0.162
relative viability (NCI-H596; first compound 0.005 µM): 0.788
relative viability (NCI-H596; first compound 0.01581 µM): 0.853
relative viability (NCI-H596; first compound 0.05 µM): 0.904
relative viability (NCI-H596; first compound 0.1581 µM): 0.62
relative viability (NCI-H596; first compound 0.5 µM): 0.704
relative viability (NCI-H647; first compound 0.005 µM): 0.695
relative viability (NCI-H647; first compound 0.01581 µM): 0.423
relative viability (NCI-H647; first compound 0.05 µM): 0.513
relative viability (NCI-H647; first compound 0.1581 µM): 0.113
relative viability (NCI-H647; first compound 0.5 µM): 0.081
relative viability (NCI-H650; first compound 0.005 µM): 0.606
relative viability (NCI-H650; first compound 0.01581 µM): 0.486
relative viability (NCI-H650; first compound 0.05 µM): 0.349
relative viability (NCI-H650; first compound 0.1581 µM): 0.223
relative viability (NCI-H650; first compound 0.5 µM): 0.209
relative viability (NCI-H727; first compound 0.005 µM): 0.524
relative viability (NCI-H727; first compound 0.01581 µM): 0.558
relative viability (NCI-H727; first compound 0.05 µM): 0.484
relative viability (NCI-H727; first compound 0.1581 µM): 0.334
relative viability (NCI-H727; first compound 0.5 µM): 0.315
relative viability (NCI-H838; first compound 0.005 µM): 0.802
relative viability (NCI-H838; first compound 0.01581 µM): 0.615
relative viability (NCI-H838; first compound 0.05 µM): 0.506
relative viability (NCI-H838; first compound 0.1581 µM): 0.242
relative viability (NCI-H838; first compound 0.5 µM): 0.21
